Measured values: patent publication US20150366877A1, “METHODS OF TREATMENT OF HUMAN CYTOMEGALOVIRUS INFECTION AND DISEASES WITH BROMODOMAIN INHIBITORS” (Washington University, priority 2013, published 2015)
Like-named read-outs stand apart in the source and are kept apart here.

Columns and labels:
[1] = test system: HCMV clinical strain TR-GFP; assay: microbe, parasite or virus in culture; assay type: cell-based, Human cytomegalovirus; conditions: Human betaherpesvirus 5, HFF
Experimental: (§1) Drug effects were calculated as a percentage of reduction in GFPU in the presence of each drug concentration comported to the GFPU determined in the absence of drug. The dose-response curves were calculated using the GraphPad Prism 6 (GraphPad Software, USA),
(§2) In these experiments, the inventors determined the IC50 and IC90 values of respective BET bromodomain inhibitors against HCMV infection using fluorescence reduction assay (FIG. 9; Table 3) s.

[2] = test system: HCMV laboratory strain AD169-GFP; assay: microbe, parasite or virus in culture; assay type: cell-based, Human cytomegalovirus; conditions: Human betaherpesvirus 5, AD169, HFF
Experimental: as §1, §2

HCMV [3] = assay: Anti-HCMV activity in cultured primary human fibroblasts; assay type: cell-based, Human cytomegalovirus
HCMV [4] = assay: Administration to a patient infected with HCMV (HCMV titers); assay type: in vivo, Human cytomegalovirus
Experimental: A patient is infected with HCMV. A health practitioner administers an amount calculated to provide 1 μM of the bromodomain inhibitor GSK525762A by intraperitoneal injection. The patient's HCMV titers decrease.

HCMV, strain AD169 = assay: TCID50 assay of viral progeny in culture media, AD169-infected HFFs; assay type: cell-based, Human cytomegalovirus; conditions: for reduction of viral titer: 125 nM; for IC50: Human betaherpesvirus 5, AD169, 120 h
Experimental: In this experiment, the inventors used TCID50 assays to determine the amounts of infectious viral particle in culture supernatants release from HCMV-infected cells, HFFs were infected with HCMV, strain AD169, at an MOI of 3 in the presence of different concentrations of JQ1. Culture media was changed every 24 hours to maintain the concentration of JQ1. At 5 (FIG. 2A) and 6 (FIG. 2B) days post infection (DPI), infected culture media was collected and titers of viral progeny in media was determined by TCID50 assay as described by Perng et al., 2011. The detection limit is indicated by the dashed line. (FIG. 2)
HFFs were infected with HCMV, strain AD 169, at an MOI of 3 in the presence of JQ1 at the range of 0-2000 nM. Culture media was changed every 24 hours to maintain the concentration of JQ1. At 5 days post infection, viral titers were determined by TCID50. […] These calculated IC50 values are much lower than published values used in the treatment of cancer.

[5] = test system: HCMV clinical strain Toledo; assay: TCID50 assay of culture supernatant (release of viral particles), Toledo; assay type: cell-based, Human cytomegalovirus; conditions: Human betaherpesvirus 5, MOI 3, 5 dpi
Experimental: (§3) In these experiments, the inventors used TCID50 assays to quantify the IC50 of (+)-JQ-1 in both HCMV laboratory-adapted and clinical strains (FIG. 9; Table 5). HFFs were infected with laboratory strain. AD169-GFP or laboratory strains FIXGFP & Toledo at an MOI of 3 in the presence of (+)-JQ-1 at the range of 0-2,000 nM. Culture media were changed every 24 hrs to maintain the concentration of JQ1. At 5 dpi, viral titers were determined by TCID50.

[6] = test system: HCMV clinical strain FIX-GFP; assay: TCID50 assay of culture supernatant (release of viral particles), FIX-GFP; assay type: cell-based, Human cytomegalovirus; conditions: Human betaherpesvirus 5
Experimental: as §3

HCMV AD169 strain = assay type: cell-based, Human cytomegalovirus
[7] = test system: HCMV clinical strain TR-GFP; assay type: cell-based, Human cytomegalovirus
[8] = test system: HCMV late proteins (pp71, pp150 and pp28); assay: Immunoblot analysis of HCMV proteins in infected HFFs; assay type: cell-based, Human cytomegalovirus; conditions: MOI 3, different concentrations, 24, 48 and 72 hours post infection
Experimental: The method is as described by Perng et al. 2011. HFFs were infected with HCMV, strain AD169, at an MOI of 3 in the presence of different concentrations of JQ1. Culture media was changed every 24 hours to maintain the concentration of JQ1. Cells were harvested at 24, 48 and 72 hours post infection, HCMV proteins, immediate-early protein (IE1), early protein (UL69), and late proteins (pp71, pp150 and pp28) were determined by immunoblot analysis. (FIG. 4)

[9] = test system: HCMV, strain AD169 infected human foreskin fibroblasts; assay: Phase-contrast/fluorescence microscopy of HCMV-infected HFF (cytomegaly morphology); assay type: cell-based, Human cytomegalovirus; conditions: 500 nm
Experimental: In these experiments, human foreskin fibroblasts (HFF) were infected with HCMV, strain AD169, at a multiplicity of infection (MOI) of 3 in the presence or absence of JQ1 […]. Culture media was changed every 24 hours to maintain the concentration of JQ1. Infected cells were examined by phase-contrast or fluorescence microscopy at 72 or 96 hours post infection (hpi). “Cytomegalic” cells appear larger in size with a characteristic intranuclear, homogenous, eosinophilic inclusion which can occupy the entire nucleus of the cell.

[10] = test system: HCMV laboratory strain AD169-GFP; assay: Time of addition assay on HCMV replication (GFP units); assay type: cell-based, Human cytomegalovirus; conditions: fixed concentration ~6.5×IC50, added at indicated hpi, GFP units after 7 days
[11] = test system: HCMV laboratory strain AD169-GFP; assay: TCID50 assay of culture supernatant (release of viral particles), AD169-GFP; assay type: cell-based, Human cytomegalovirus; conditions: Human betaherpesvirus 5, AD169
Experimental: as §3

[12] = test system: fatty acid synthase (FASN) and solute carrier family 38 member 5 (SLC38A5); assay: RNA-seq differential expression of FASN and SLC38A5 in HCMV-infected HFF; assay type: cell-based, human; conditions: 250 uM, MOI 3, 48 hpi
Experimental: HFF cells were mock-infected or HCMV infected with laboratory strain AD169-GFP at a MOI of 3. (FIG. 12A) HFF cells were infected with AD169-GFP at a MOI of 3 in the presence or absence of […] (+)-JQ-1. (FIG. 12B) Cells from both (A) and (B) were harvested at 48 hpi and the total RNA was extracted using a column-based RNA purification kit (Qiagen). RNA integrity was evaluated with a Nano-drop spectrometer (NanoDrop, Wilmington, Del.). Messenger RNA purification, fragmentation, construction of sequencing library and sequencing were performed. The differential expression profiles of two c-Myc inducible genes, fatty acid synthase (FASN) and solute carrier family 38 member 5 (SLC38A5), were determined using an EdgeR procedure.

Q: Which IC50 [1] does the source give for `COc1cc2c(cc1-c1c(C)noc1C)ncc1[nH]c(=O)n(C(C)c3ccccn3)c12` (stereo in doubt) [I-BET151, 7-(3,5-Dimethyl-1,2-oxazol-4-yl)-8-methoxy-1-[(1R)-1-(2-pyridinyl)ethyl]-1,3-dihydro-2H-imidazo[4,5-c]quinolin-2-one] here?
A: 0.11 µM

Q: What about the IC90 [1] of the same compound?
A: 0.16 µM

Q: And the IC50 [2]?
A: 0.16 µM

Q: What about the IC90 [2] of the same compound?
A: 0.55 µM

Q: What about the “Concentration to inhibit HCMV replication” value (HCMV [3]) of the same compound?
A: 0.391 to 0.781 µM

Q: And the “patient's HCMV titers” value (HCMV [4]; amount calculated to provide 0.5 μM, intraperitoneal injection)?
A: decrease

Q: `Cc1sc2c(c1C)C(c1ccc(Cl)cc1)=N[C@@H](CC(=O)OC(C)(C)C)c1nnc(C)n1-2` [(+)-JQ1, 4-(4-chlorophenyl)-2,3,9-trimethyl-1,1-dimethylethyl ester-6H-thieno[3,2-f][1,2,4]triazolo[4,3-}{1,4}diazepine-6S-acetic acid] was tested. Which “reduction of viral titer” value (HCMV, strain AD169; 5 days post infection) did it give?
A: approximately 1000 fold

Q: And the “reduction of viral titer” value (HCMV, strain AD169; 6 days post infection)?
A: greater than 1000 fold

Q: And the viral titer (HCMV, strain AD169; 250 nM, 5 days post infection)?
A: further reduced the viral titer

Q: What about the viral titer (HCMV, strain AD169; 250 nM, 6 days post infection) of the same compound?
A: undetectable

Q: What about the viral titer (HCMV, strain AD169; 500 nM, 5 days post infection) of the same compound?
A: undetectable

Q: What about the viral titer (HCMV, strain AD169; 500 nM, 6 days post infection) of the same compound?
A: undetectable

Q: And the IC50 (HCMV, strain AD169; read-out: IC50 (50% viral replication inhibitory concentration), AD169, MOI 3, 5 days post infection, calculated using four parameters)?
A: 0.0216 µM

Q: What about the IC50 (HCMV, strain AD169; read-out: IC50 (50% viral replication inhibitory concentration), AD169, MOI 3, 5 days post infection, calculated using three parameters) of the same compound?
A: 0.0178 µM

Q: And the IC50 [5]?
A: 0.022 µM

Q: What about the IC90 [5] of the same compound?
A: 0.037 µM

Q: And the IC50 [6]?
A: 0.018 µM

Q: What about the IC90 [6] of the same compound?
A: 0.031 µM

Q: And the “production of infectious viral particles (electron micrographs)” value (HCMV AD169 strain)?
A: blocks the production of infectious viral particles

Q: What about the IC50 [1] of the same compound?
A: 0.039 µM

Q: And the IC90 [1]?
A: 0.093 µM

Q: What about the IC50 [2] of the same compound?
A: 0.077 µM

Q: What about the IC90 [2] of the same compound?
A: 0.21 µM

Q: What about the “production of infectious viral particles (EM analysis)” value [7] of the same compound?
A: blocks the production of infectious viral particles

Q: And the “accumulation of HCMV late proteins” value [8]?
A: modestly inhibits

Q: And the “morphology of infected HFF cells” value ([9]; MOI 3, 72 hours post infection)?
A: lost the “cytomegalic” morphology and an accumulation of dead cells was present

Q: What about the “morphology of infected HFF cells” value ([9]; MOI 3, 96 hours post infection) of the same compound?
A: lost the “cytomegalic” morphology and a greater accumulation of floating dead cells were present

Q: And the “effect of the time of addition on HCMV replication” value (“effect of the time of addition” for short) [10]?
A: block HCMV infections regardless of times post infection

Q: What about the IC50 [11] of the same compound?
A: 0.018 µM

Q: What about the IC90 [11] of the same compound?
A: 0.049 µM

Q: What about the “patient's HCMV titers” value (HCMV [4]; therapeutically effective amount, intraperitoneal injection) of the same compound?
A: decrease

Q: What about the “up-regulation of FASN and SLC38A5 by HCMV infection” value [12] of the same compound?
A: up-regulation is reversed

Q: Which results are given for `CCOC(=O)Nc1cc(-c2ccc(C)c(NS(C)(=O)=O)c2)nn2c(C)nnc12` [Bromosporine, N-[6-(3-methanesulfonamido-4-methylphenyl)-3-methyl-[1,2,4]triazolo[4,3-b]pyridazin-8-yl]carbamate]?
A: IC50 [2]: 0.29 µM; IC90 [2]: 0.64 µM

Q: What does the source list for `Cc1sc2c(c1C)C(c1ccc(Cl)cc1)=N[C@@H](CC(N)=O)c1nnc(C)n1-2` [CPI-203, (S)-2-(4-(4-chlorophenyl)-2,3,9-trimethyl-6H-thieno [3,2-f][1,2,4]triazolo[4,3-a][1,4]diazepin-6-yl)acetamide]?
A: IC50 [2]: 0.04 µM; IC90 [2]: 0.14 µM

Q: For `Nc1ccn(C[C@@H](CO)OCP(=O)(O)O)c(=O)n1` [Cidofovir], which IC50 [2] is on record?
A: 0.15 µM

Q: And the IC90 [2]?
A: 1.08 µM

Q: How did the IC50 [2] turn out when `Nc1nc(O)c2ncn(COC(CO)CO)c2n1` [Ganciclovir] was run?
A: 1.78 µM

Q: What about the IC90 [2] of the same compound?
A: 25 µM

Q: Which “effect of the time of addition” value [10] does the source give for `CCNC(=O)C[C@@H]1N=C(c2ccc(Cl)cc2)c2cc(OC)ccc2-n2c(C)nnc21` [I-BET762, 2-[(4S)-6-(4-chlorophenyl)-8-methoxy-1-methyl-4H-[1,2,4]triazolo[4,3-a][1,4]benzodiazepine-4-yl]-N-ethylacetamide] here?
A: block HCMV infections regardless of times post infection

Q: And the “patient's HCMV titers” value (HCMV [4]; amount calculated to provide 1 μM, intraperitoneal injection)?
A: decrease

Q: With `COc1cccc(N2CCN(C3=Nc4c(F)cccc4[C@H](CC(=O)O)N3c3cc(C(F)(F)F)ccc3OC)CC2)c1` [Letermovir] as the compound, how does the IC50 [2] read?
A: 0.0041 µM

Q: And the IC90 [2]?
A: 0.0058 µM

Q: What about the “effect of the time of addition” value [10] of the same compound?
A: cannot control the viral infection after 48 hours post-infection

Q: For `Cc1sc2c(c1C)C(c1ccc(Cl)cc1)=N[C@@H](CC(=O)Nc1ccc(O)cc1)c1nnc(C)n1-2` [OTX-015, (S)-2-[4-(4-chlorophenyl)-2,3,9-trimethyl-6H-thieno [3,2-f][1,2,4]triazolo-[4,3-a][1,4]diazepin-6-yl]-N-(4-hydroxyphenyl)acetamide], which IC50 [1] is on record?
A: 0.029 µM

Q: And the IC90 [1]?
A: 0.085 µM

Q: What about the IC50 [2] of the same compound?
A: 0.069 µM

Q: And the IC90 [2]?
A: 0.21 µM

Q: And the “effect of the time of addition” value [10]?
A: block HCMV infections regardless of times post infection

Q: And the “patient's HCMV titers” value (HCMV [4]; therapeutically effective amount, oral administration)?
A: decrease

Q: Which IC50 [1] does the source give for `COc1ccccc1S(=O)(=O)Nc1ccc2c(c1)CN(C)C(=O)N2` [PFI-1, 2-Methoxy-N-(3-methyl-2-oxo-1,2,3,4-tetrahydro-6-quinazolinyl)benzenesulfonamide] here?
A: 0.42 µM

Q: What about the IC90 [1] of the same compound?
A: 1.22 µM

Q: What about the IC50 [2] of the same compound?
A: 0.79 µM

Q: What about the IC90 [2] of the same compound?
A: 2.56 µM

Q: How did the IC50 [1] turn out when `COc1cc(OC)c2c(=O)[nH]c(-c3cc(C)c(OCCO)c(C)c3)nc2c1` [RVX-208, 2-[4-(2-hydroxyethoxy)-3,5-dimethyl-phenyl]-5,7-dimethoxy-3H-quinazolin-4-one] was run?
A: 3.16 µM

Q: And the IC90 [1]?
A: 6.67 µM

Q: What about the IC50 [2] of the same compound?
A: 7.93 µM

Q: What about the IC90 [2] of the same compound?
A: 31.1 µM

Q: What about the “Concentration to inhibit HCMV replication” value (HCMV [3]) of the same compound?
A: 14.063 to 28.125 µM

Q: And the “patient's HCMV titers” value (HCMV [4]; amount calculated to provide 19 μM, intraperitoneal injection)?
A: decrease
